The supplement of paper PMC13380429

Legend:
Settings in all cases: 72 h
[1] = tested on: U2OS; test: drug sensitivity score (DSS) for viability; higher = more toxic; extreme values may be limits of the assay
[2] = tested on: Caco-2; test: as above
[3] = tested on: Calu-3; test: as above
[4] = tested on: HepG2; test: as above
[5] = tested on: Vero E6; test: as above
[6] = tested on: U2OS; test: cell viability relative to DMSO; higher = less toxic
[7] = tested on: Caco-2; test: as above
[8] = tested on: Calu-3; test: as above
[9] = tested on: HepG2; test: as above
[10] = tested on: Vero E6; test: as above
[11] = tested on: U2OS; test: relative viability EC50 (midpoint between 100% and the lowest measured viability); higher = less toxic
[12] = tested on: Caco-2; test: as above
[13] = tested on: Calu-3; test: as above
[14] = tested on: HepG2; test: as above
[15] = tested on: Vero E6; test: as above

Row | Compound | drug sensitivity score [1] | drug sensitivity score [2] | drug sensitivity score [3] | drug sensitivity score [4] | drug sensitivity score [5] | cell viability ([6]; 1 nM) [%] | cell viability ([6]; 10 nM) [%] | cell viability ([6]; 100 nM) [%] | cell viability ([6]; 1000 nM) [%] | cell viability ([6]; 10000 nM) [%] | cell viability ([7]; 1 nM) [%] | cell viability ([7]; 10 nM) [%] | cell viability ([7]; 100 nM) [%] | cell viability ([7]; 1000 nM) [%] | cell viability ([7]; 10000 nM) [%] | cell viability ([8]; 1 nM) [%] | cell viability ([8]; 10 nM) [%] | cell viability ([8]; 100 nM) [%] | cell viability ([8]; 1000 nM) [%] | cell viability ([8]; 10000 nM) [%] | cell viability ([9]; 1 nM) [%] | cell viability ([9]; 10 nM) [%] | cell viability ([9]; 100 nM) [%] | cell viability ([9]; 1000 nM) [%] | cell viability ([9]; 10000 nM) [%] | cell viability ([10]; 1 nM) [%] | cell viability ([10]; 10 nM) [%] | cell viability ([10]; 100 nM) [%] | cell viability ([10]; 1000 nM) [%] | cell viability ([10]; 10000 nM) [%] | relative viability EC50 [11] [µM] | relative viability EC50 [12] [µM] | relative viability EC50 [13] [µM] | relative viability EC50 [14] [µM] | relative viability EC50 [15] [µM]
1 | O=c1cc(-c2ccccc2)oc2cc(O)cc(O)c12 [chrysin] | 0 | 0 | 0 | 0 | 0 | 98.4 | 97 | 101 | 97.4 | 99.2 | 99.4 | 86.9 | 102 | 91.9 | 94.4 | 94.5 | 92.9 | 106 | 91.7 | 102 | 88.5 | 102 | 93.5 | 100 | 104 | 92.5 | 102 | 87.9 | 94.8 | 111 | > 10 | > 10 | > 10 | > 10 | > 10
2 | NC(=O)C1=CN([C@@H]2O[C@H](COP(=O)(O)OP(=O)(O)OC[C@H]3O[C@@H](n4cnc5c(N)ncnc54)[C@H](O)[C@@H]3O)[C@@H](O)[C@H]2O)C=CC1 [coenzyme-I] | 0 | 0 | 0 | 0 | 0 | 103 | 97.5 | 101 | 95.9 | 113 | 103 | 94.2 | 88.7 | 98.7 | 108 | 91.4 | 92.2 | 100 | 93.2 | 97.3 | 93.3 | 103 | 89.4 | 111 | 90.2 | 93 | 96.4 | 89.3 | 97.2 | 105 | > 10 | > 10 | > 10 | > 10 | > 10
3 | N[C@@H]1CONC1=O [cycloserine-(D)] | 0 | 0 | 0 | 0 | 0 | 96.7 | 96.3 | 96.4 | 96.7 | 97 | 89.5 | 96.2 | 100 | 98.7 | 105 | 99.6 | 102 | 97.2 | 105 | 96.7 | 106 | 101 | 104 | 89.7 | 108 | 99.6 | 104 | 98.2 | 99.8 | 103 | > 10 | > 10 | > 10 | > 10 | > 10
4 | O=C1c2cccc(O)c2C(=O)c2c(O)cccc21 [dantron] | 0 | 0 | 0.1 | 0 | 0.2 | 94.3 | 98.4 | 97.7 | 103 | 99.8 | 107 | 92.6 | 88.7 | 91.2 | 101 | 103 | 97.5 | 96.1 | 98.6 | 88.4 | 102 | 105 | 105 | 97.9 | 93.8 | 98.5 | 89.2 | 100 | 93.2 | 83.5 | > 10 | > 10 | > 10 | > 10 | > 10
5 | CC1(C)OC(=O)NC1=O [dimethadione] | 0 | 0 | 0 | 0 | 0 | 101 | 103 | 95 | 98.6 | 96.2 | 99.9 | 98.9 | 105 | 97.7 | 98.3 | 92.4 | 107 | 100 | 105 | 109 | 106 | 102 | 96.9 | 95.9 | 95.1 | 112 | 108 | 108 | 97.7 | 102 | > 10 | > 10 | > 10 | > 10 | > 10
6 | CN1CCC(OC(c2ccccc2)c2ccccc2)CC1 [diphenylpyraline] | 0 | 0 | 0 | 0 | 0 | 103 | 95.7 | 102 | 95.1 | 98.6 | 96.1 | 96.3 | 97.6 | 102 | 94.6 | 97.3 | 90 | 98.7 | 94.9 | 95.1 | 89.7 | 98.2 | 90.6 | 103 | 111 | 94.6 | 106 | 97.1 | 104 | 109 | > 10 | > 10 | > 10 | > 10 | > 10
7 | C[C@]12CCC(=O)C=C1[C@@H]1C[C@@H]1[C@H]1[C@@H]3[C@@H]4C[C@@H]4[C@@]4(CCC(=O)O4)[C@@]3(C)CC[C@@H]12 [drospirenone] | 0 | 0 | 0 | 0 | 0 | 98.7 | 102 | 103 | 104 | 88.3 | 86.1 | 96.5 | 96.1 | 94.1 | 108 | 99.5 | 97.9 | 97.4 | 100 | 120 | 99.1 | 102 | 106 | 98.4 | 92.7 | 108 | 102 | 112 | 101 | 89.2 | > 10 | > 10 | > 10 | > 10 | > 10
